Measurements taken from patent US10619138B2, “Herbicide-resistant hydroxyphenylpyruvate dioxygenases” (BASF SE, priority 2013, dated 2020).
“And” between values parts separate entries of the source, which are not always exact repeats. Equal values may be shown once.

What was measured:
[1] = test system: untransformed wild-type (WT) Arabidopsis plants; assay: Greenhouse herbicide spray test, wild-type plants; assay type: in vivo, Arabidopsis thaliana; conditions: two weeks after treatment, mean of three plants
From the text: (§1) Additionally, T1 and T2 transgenic Arabidopsis plants can be tested for improved tolerance to HPPD-inhibiting herbicides in greenhouse studies. Herbicide injury scoring is done 2-3 weeks after treatment and is rated on a scale of 0 to 100%, 0% being no injury and 100% being complete death.
(§2) Transgenic Arabidopsis plants were sprayed with a range of doses from 1.56-50 g/ha with HPPD-inhibiting herbicides and injury evaluations were taken two weeks after treatment. […] As depicted in Table 6, control plants are severely injured by all doses of herbicide applied, with at least 70% of leaf material being damaged at the lowest application rate. For example, transgenic plants expressing Scenedesmus HPPD have an excellent tolerance to all herbidcides tested. […] After application of Inhibitor 2, only 18% of leaf material was damaged resulting in a 5-fold tolerance compared to the WT at the highest application rate.

[2] = test system: Mucilaginibacter HPPD (SEQ ID NO: 28); assay: In vitro HPPD activity assay, tolerance index; assay type: biochemical, Mucilaginibacter paludis; conditions: normalized on Arabidopsis wild-type HPPD
Protocol: (§3) The activity assay for HPPD is based on the analysis of homogentisic acid by reversed phase HPLC.
(§4) The assay mixture can contain 150 mM potassium phosphate buffer pH 7.0, 50 mM L-ascorbic acid, 100 μM Catalase (Sigma-Aldrich), 1 μM FeSO4 and 0.2 units of purified HPPD enzyme in a total volume of 505 μl. 1 unit is defined as the amount of enzyme that is required to produce 1 nmol of HGA per minute at 20° C.
(§5) The reaction is allowed to proceed for 45 min at room temperature. The reaction is stopped by the addition of 50 μl of 4.5 M phosphoric acid. The sample is filtered using a […] pore size PVDF filtration device.
(§6) 5 μl of the cleared sample is analyzed on an UPLC HSS T3 column (particle size 1.8 μm, dimensions 2.1×50 mm; Waters) by isocratic elution using 90% 20 mM NaH2PO4 pH 2.2, 10% methanol (v/v).
(§7) HGA is detected electrochemically at 750 mV (mode: DC; polarity: positive) and quantified by integrating peak areas (Empower software; Waters).
(§8) Inhibitors are dissolved in DMSO (dimethylsulfoxide) to a concentration of 0.5 mM. From this stock solution serial five-fold dilutions are prepared in DMSO, which are used in the assay. The respective inhibitor solution accounts for 1% of the assay volume. Thus, final inhibitor concentrations range from 5 μM to 320 pM, respectively. Activities are normalized by setting the uninhibited enzyme activity to 100%. IC50 values are calculated using non-linear regression.
(§9) Using methods which are described in the above examples or well known in the art, purified, recombinant wildtype HPPD enzymes are characterized with respect to their kinetic properties and sensitivity towards HPPD inhibiting herbicides. Apparent michaelis constants (Km) and maximal reaction velocities (Vmax) are calculated by non-linear regression with the software GraphPad Prism 5 (GraphPad Software, La Jolla, USA) using a substrate inhibition model. […] Weighted means (by standard error) of Km and IC50 values are calculated from at least three independent experiments. The Cheng-Prusoff equation for competitive inhibition (Cheng, Y. C.; Prusoff, W. H. Biochem Pharmacol 1973, 22, 3099-3108) is used to calculate dissociation constants (Ki).
(§10) Field performance of the HPPD enzyme, which is used as a herbicide tolerance trait may depend not only on its lack of sensitivity towards HPPD inhibiting herbicides but also on its activity. To assess the potential performance of a herbicide tolerance trait a tolerance index (TI) is calculated using the following formula: […]
(§11) Easy comparison and ranking of each trait is enabled by normalizing tolerance indexes on Arabidopsis wild-type HPPD.

[3] = biological target: T1, Arabidopsis HPPD (SEQ ID NO: 42) (Arabidopsis thaliana, UniProt P93836); assay: In vitro HPPD activity assay (HGA by HPLC), wildtype enzyme characterization; assay type: biochemical; conditions: for TI (normalized tolerance index): normalized on Arabidopsis wild-type HPPD, reference enzyme
T1 construct: Arabidopsis (42); His tag; made in house; host or cells: E. coli BL21 (DE3)
T1 sequence (P93836 1-445): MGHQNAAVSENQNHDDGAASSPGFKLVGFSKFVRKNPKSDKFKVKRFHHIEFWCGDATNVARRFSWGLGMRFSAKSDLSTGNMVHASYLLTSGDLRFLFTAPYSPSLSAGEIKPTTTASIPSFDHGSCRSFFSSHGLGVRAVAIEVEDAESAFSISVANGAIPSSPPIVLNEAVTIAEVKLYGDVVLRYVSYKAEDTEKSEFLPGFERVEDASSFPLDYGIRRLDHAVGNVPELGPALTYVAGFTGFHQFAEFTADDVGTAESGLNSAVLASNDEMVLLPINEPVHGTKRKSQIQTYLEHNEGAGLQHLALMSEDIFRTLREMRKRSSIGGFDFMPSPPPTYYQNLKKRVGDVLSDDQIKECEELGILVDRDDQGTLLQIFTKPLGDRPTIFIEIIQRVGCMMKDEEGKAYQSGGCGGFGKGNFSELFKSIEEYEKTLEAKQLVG
Protocol: as §3, §4, §5, §6, §7
as §8, with “Thus, final inhibitor concentrations range from 5 μM to 320 pM, respectively.” left out
as §9, with “experiments.” for “experiments. The Cheng-Prusoff equation for competitive inhibition (Cheng, Y. C.; Prusoff, W. H. Biochem Pharmacol 1973, 22, 3099-3108) is used to calculate dissociation constants (Ki).”
as §10, §11

[4] = test system: Microscilla HPPD (SEQ ID NO: 20); assay: In vitro HPPD activity assay, tolerance index; assay type: biochemical, Microscilla marina; conditions: normalized on Arabidopsis wild-type HPPD
Protocol: as §3, §4, §5, §6, §7, §8, §9, §10, §11

[5] = test system: Pontibacter HPPD (SEQ ID NO: 16); assay: In vitro HPPD activity assay, tolerance index; assay type: biochemical, Pontibacter sp.; conditions: normalized on Arabidopsis wild-type HPPD
Protocol: as §3, §4, §5, §6, §7, §8, §9, §10, §11

[6] = test system: Algoriphagus HPPD (SEQ ID NO: 22); assay: In vitro HPPD activity assay, tolerance index; assay type: biochemical, Algoriphagus machipongonensis; conditions: normalized on Arabidopsis wild-type HPPD
Protocol: as §3, §4, §5, §6, §7, §8, §9, §10, §11

[7] = test system: Acidobacterium HPPD (SEQ ID NO: 30); assay: In vitro HPPD activity assay, tolerance index; assay type: biochemical, Acidobacterium capsulatum; conditions: normalized on Arabidopsis wild-type HPPD
Protocol: as §3, §4, §5, §6, §7, §8, §9, §10, §11

[8] = test system: transgenic Arabidopsis plants expressing Algoriphagus HPPD; assay: Greenhouse herbicide spray test, transgenic plants (T2); assay type: in vivo, Arabidopsis thaliana; conditions: two weeks after treatment
From the text: as §1, §2

[9] = test system: transgenic Arabidopsis plants expressing Acidobacterium HPPD; assay: as above; assay type: in vivo, Arabidopsis thaliana; conditions: two weeks after treatment
From the text: as §1, §2

[10] = test system: transgenic Arabidopsis plants expressing Scenedesmus HPPD; assay: as above; assay type: in vivo, Arabidopsis thaliana; conditions: two weeks after treatment
From the text: as §1, §2

[11] = test system: Scenedesmus HPPD (SEQ ID NO: 4); assay: In vitro HPPD activity assay, tolerance index; assay type: biochemical, Scenedesmus obliquus; conditions: normalized on Arabidopsis wild-type HPPD
Protocol: as §3, §4, §5, §6, §7, §8, §9, §10, §11

[12] = test system: Geodermatophilus HPPD (SEQ ID NO: 32); assay: In vitro HPPD activity assay, tolerance index; assay type: biochemical, Geodermatophilus obscurus; conditions: normalized on Arabidopsis wild-type HPPD
Protocol: as §3, §4, §5, §6, §7, §8, §9, §10, §11

[13] = test system: Belliella HPPD (SEQ ID NO: 12); assay: In vitro HPPD activity assay, tolerance index; assay type: biochemical, Belliella baltica; conditions: normalized on Arabidopsis wild-type HPPD
Protocol: as §3, §4, §5, §6, §7, §8, §9, §10, §11

[14] = test system: Herpetosiphon HPPD (SEQ ID NO: 26); assay: In vitro HPPD activity assay, tolerance index; assay type: biochemical, Herpetosiphon aurantiacus; conditions: normalized on Arabidopsis wild-type HPPD
Protocol: as §3, §4, §5, §6, §7, §8, §9, §10, §11

`Cc1c(C(=O)c2cnn(C)c2O)ccc(S(C)(=O)=O)c1C1=NOCC1` [Inhibitor 1, [3-(4,5-dihydroisoxazol-3-yl)-2-methyl-4-methylsulfonyl-phenyl]-(5-hydroxy-1-methyl-pyrazol-4-yl)methanone] was tested, and the “Injury evaluation, scale 0-100%” value ([1]; 1.56 g/ha) was 88%, the “Injury evaluation, scale 0-100%” value ([1]; 3.125 g/ha) was 90% and the “Injury evaluation, scale 0-100%” value ([1]; 6.25 g/ha) was 90%. For the same compound, the “TI (normalized tolerance index)” value [2] was 56.8, the Ki [3] was 0.95 nM and the “TI (normalized tolerance index)” value [3] was 1. The “TI (tolerance index)” value ([3]; not normalized) was 0.95E−3, the “TI (normalized tolerance index)” value [4] was 9.1 and the “TI (normalized tolerance index)” value [5] was 5.3. For the same compound, the “TI (normalized tolerance index)” value [6] was 23.7, the “TI (normalized tolerance index)” value [7] was 22 and 21.9 and the “Injury evaluation, scale 0-100%” value ([8]; Algoriphagus HPPD Event 1, 1.56 g/ha) was 60%. For the same compound, the “Injury evaluation, scale 0-100%” value ([8]; Algoriphagus HPPD Event 1, 3.125 g/ha) was 70%, the “Injury evaluation, scale 0-100%” value ([8]; Algoriphagus HPPD Event 1, 6.25 g/ha) was 90% and the “Injury evaluation, scale 0-100%” value ([8]; Algoriphagus HPPD Event 2, 1.56 g/ha) was 48%. For the same compound, the “Injury evaluation, scale 0-100%” value ([8]; Algoriphagus HPPD Event 2, 3.125 g/ha) was 68%, the “Injury evaluation, scale 0-100%” value ([8]; Algoriphagus HPPD Event 2, 6.25 g/ha) was 78% and the “Injury evaluation, scale 0-100%” value ([9]; Acidobacterium HPPD Event 1, 1.56 g/ha) was 43%. The “Injury evaluation, scale 0-100%” value ([9]; Acidobacterium HPPD Event 1, 3.125 g/ha) was 78%, the “Injury evaluation, scale 0-100%” value ([9]; Acidobacterium HPPD Event 1, 6.25 g/ha) was 94% and the “Injury evaluation, scale 0-100%” value ([9]; Acidobacterium HPPD Event 2, 1.56 g/ha) was 48%. The “Injury evaluation, scale 0-100%” value ([9]; Acidobacterium HPPD Event 2, 3.125 g/ha) was 78%, the “Injury evaluation, scale 0-100%” value ([9]; Acidobacterium HPPD Event 2, 6.25 g/ha) was 97% and the “Injury evaluation, scale 0-100%” value ([10]; Scenedesmus HPPD Event 1, 1.56 g/ha) was 35%. The “Injury evaluation, scale 0-100%” value ([10]; Scenedesmus HPPD Event 1, 3.125 g/ha) was 58%, the “Injury evaluation, scale 0-100%” value ([10]; Scenedesmus HPPD Event 1, 6.25 g/ha) was 68% and the “Injury evaluation, scale 0-100%” value ([10]; Scenedesmus HPPD Event 2, 1.56 g/ha) was 45%. The “Injury evaluation, scale 0-100%” value ([10]; Scenedesmus HPPD Event 2, 3.125 g/ha) was 55% and the “Injury evaluation, scale 0-100%” value ([10]; Scenedesmus HPPD Event 2, 6.25 g/ha) was 65%.
`CC(=O)N(C)c1c(Cl)ccc(C2=C(O)c3ncccc3C(C)(C)S2(=O)=O)c1Cl` [Inhibitor 6, N-[2,6-dichloro-3-(8-hydroxy-5,5-dimethyl-6,6-dioxo-thiopyrano[4,3-b]pyridin-7-yl)phenyl]-N-methyl-acetamide] was tested, and the “TI (normalized tolerance index)” value [11] was 0.3, the “TI (normalized tolerance index)” value [2] was 3.1 and the “TI (normalized tolerance index)” value [3] was 1. For the same compound, the “TI (normalized tolerance index)” value [4] was 14.7, the “TI (normalized tolerance index)” value [12] was 3.4 and the “TI (normalized tolerance index)” value [5] was 1.5. For the same compound, the “TI (normalized tolerance index)” value [13] was 7.6, the “TI (normalized tolerance index)” value [6] was 29.7 and the “TI (normalized tolerance index)” value [14] was 1.2.
For `CC1=NOC(c2c(Cl)ccc(C3=C(O)c4ncccc4C(C)(C)S3(=O)=O)c2Cl)C1` (centres unmarked) [Inhibitor 7, 7-[2,4-dichloro-3-(3-methyl-4,5-dihydroisoxazol-5-yl)phenyl]-5,5-dimethyl-6,6-dioxo-thiopyrano[4,3-b]pyridin-8-ol], the “TI (normalized tolerance index)” value [2] was 62.6, the “TI (normalized tolerance index)” value [3] was 1 and the “TI (normalized tolerance index)” value [4] was 337.7. For the same compound, the “TI (normalized tolerance index)” value [5] was 107.7, the “TI (normalized tolerance index)” value [6] was 448 and 447.5 and the “TI (normalized tolerance index)” value [7] was 239 and 238.9.
In the case of `CC1(C)c2cccnc2C(O)=C(c2ccc(Cl)nc2Cl)S1(=O)=O` [Inhibitor 8, 7-(2,6-dichloro-3-pyridyl)-5,5-dimethyl-6,6-dioxo-thiopyrano[4,3-b]pyridin-8-ol], the “TI (normalized tolerance index)” value [2] is reported as 26, the “TI (normalized tolerance index)” value [3] is reported as 1 and the “TI (normalized tolerance index)” value [4] is reported as 65.9. The “TI (normalized tolerance index)” value [5] was 13.7, the “TI (normalized tolerance index)” value [6] was 73.7 and the “TI (normalized tolerance index)” value [7] was 35 and 34.6.
`CC1(C)c2cccnc2C(O)=C(c2c(F)ccc(Cl)c2Br)S1(=O)=O` [Inhibitor 9, 7-(2-bromo-3-chloro-6-fluoro-phenyl)-5,5-dimethyl-6,6-dioxo-thiopyrano[4,3-b]pyridin-8-ol] was tested, and the “TI (normalized tolerance index)” value [3] was 1, the “TI (normalized tolerance index)” value [4] was 22.8 and the “TI (normalized tolerance index)” value [12] was “tolerant”. The “TI (normalized tolerance index)” value [5] was 3.9, the “TI (normalized tolerance index)” value [6] was 42.8 and the “TI (normalized tolerance index)” value [14] was “tolerant”. For the same compound, the “TI (normalized tolerance index)” value [7] was 20 and 20.2.
For `Cc1nonc1NC(=O)c1ccc(S(C)(=O)=O)c(S(C)(=O)=O)c1C` [Inhibitor 10, 2-methyl-N-(4-methyl-1,2,5-oxadiazol-3-yl)-3,4-bis(methylsulfonyl)benzamide], the “TI (normalized tolerance index)” value [2] was 34.1, the “TI (normalized tolerance index)” value [3] was 1 and the “TI (normalized tolerance index)” value [4] was 8.3. For the same compound, the “TI (normalized tolerance index)” value [5] was 6 and the “TI (normalized tolerance index)” value [6] was 19.
